# In US20180289843A1, “COATING FOR METAL NANOPARTICLES” (AGENCY FOR SCIENCE, TECHNOLOGY AND RESEARCH, priority 2015, published 2018):
# Where a SMILES comes first, the peptide text is derived from it. [ ]: non-standard residue; d: D form. The star is where a group is joined. pS = N[C@@H](COP(=O)(O)O)C(=O)O; Thr(ol) = C[C@@H](O)[C@H](N)CO; X1 = O=C(COP(=O)(O)O)*
# Tests used:
# [1] = Normalized aggregation parameter (NAP) by UV-visible absorbance; type: physicochemical; details: single ligand shell
# Description: UV-visible spectra were recorded at room temperature using a Molecular Probes (Oregon, USA) Spectramax 384-well spectrometer, using a 1 cm path length quartz cuvette, and a fixed slit width of 2 nrn. The spectrometer was calibrated daily using the machine's ‘Auto-Calibrate’ air calibration.
# To allow the comparison of results from different ligand exchange experiments, the aggregation parameter (AP) was defined as follows: […]
# A460 nm and A300 nm are absorbance values of solutions of nanoparticles at 460 nm and 300 nm, respectively. The empiric wavelength of 460 nm has been chosen to reflect the aggregated state of the nanoparticles. Aref460 nm and Aref300 nm are absorbance values of water at 460 nm and 300 nm. To allow comparison of results obtained with different ligand shells, this primary aggregation parameter was then normalized by dividing the aggregation parameter values of each experiment by the initial aggregation parameter value of the same experiment before the stability test. This provides a Normalized Aggregation Parameter (NAP). […] An increase of the NAP indicates the instability and eventually aggregation of the nanoparticles.
# [2] = Electrolyte-induced aggregation stability test (NaCl, PBS) followed by UV-visible spectrometry; type: physicochemical; details: prepared in PBS and Tween 20, two days
# Description: The stability of the nanoparticles was followed by UV-visible spectrometry. A decrease of absorbance indicates the aggregation of the nanoparticles. […] The four single peptide ligand shells were evaluated for their potential to stabilize the iron oxide nanoparticles against electrolyte-induced aggregation. The nanoparticles were mixing with a range of concentration of NaCl (0.1 mM to 1 M) at room temperature. The stability of the nanoparticles was followed by UV-visible spectrophotometry and the normalized aggregation parameters were determined. […] The aggregation of all nanoparticles were observed also in PBS buffer (with 100 mM NaCl) after few hours. […] This represents a promising result since the utilization of the peptide coated iron nanoparticles in vitro and in vivo are performed at 37° C. All the mixed peptide ligand shells providing sufficient yield of nanoparticles were evaluated for electrolyte-induced aggregation stability by mixing the nanoparticles with a range of concentration of NaCl (0.1 mM to 1 M) at room temperature. […] This represents again a promising results since the utilisation of the peptide coated iron nanoparticles in vitro and in vivo are performed at 37° C.
# [3] = prepared using PBS and Tween 20
Compound,NAP (normalized aggregation parameter) ([1]; prepared using water only),further results
"O=P(O)(O)SCCCCCCCCCCCOCCOCCOCCO [Ligand L1, (HO)2-PO-S-C11-EG3-OH]",(1.25 ± 0.08),
PO3H2-O-CH2-CO-Ser(PO3H2)-NH-PEG4-OH [Peptide S7],(1 ± 0.02),"NAP (normalized aggregation parameter) [1, 3]: 1.33 ± 0.08"
"CC(C)[C@H](NC(=O)[C@H](COP(=O)(O)O)NC(=O)COP(=O)(O)O)C(=O)N[C@H](C(=O)N[C@H](C(=O)N[C@H](CO)[C@@H](C)O)C(C)C)C(C)C [Peptide S14, PO3H2-O-CH2-CO-Ser(PO3H2)-Val-Val-Val-Thr-ol] (X1-[pS]VVV[Thr(ol)])",,Stability in PBS buffer at 37° C. ([2]; 37° C.): same high stability; Stability in 1 M NaCl ([2]; room temperature): high stability; Stability in PBS buffer at room temperature ([2]; room temperature): high stability
H-[pS]VVV[Thr(ol)] [Peptide S13],(1.23 ± 0.13),"NAP (normalized aggregation parameter) [1, 3]: 2.23 ± 0.34"

# The next lines start with results.
NAP (normalized aggregation parameter) ([1]; prepared using water only),Compound,further results
(1 ± 0.01),PO3H2-O-CH2-CO-Ser(PO3H2)-NH-PEG4-ol [Peptide S8],
(1.21 ± 0.21),PO3H2-O-CH2-CO-Gly-NH-PEG4-OH [Peptide S5],
(1.31 ± 0.04),"O=P(O)(O)SCCCCCCCCCCCOCCOCCOCCOCCOCCOCCO [Ligand L2, (HO)2-PO-S-C11-EG6-OH]",
